Laboratory results as given in patent publication US20220175713A1, “DEPSIDE TRIMERIC COMPOUNDS FOR SKELETAL MUSCLE MODULATION” (SOCIETE DES PRODUITS NESTLE S.A., priority 2019, published 2022).

System: mouse hindlimb muscles injured with cardiotoxin
Assay: In vivo muscle regeneration after intramuscular cardiotoxin injury
Conditions: mice, oral gavage 100 mg/kg body weight once a day from one week before injury, muscles harvested 5 days after injury, vs. water control, FIG. 6
Protocol: (§1) Early phase of expansion and subsequent phase of myogenic differentiation of Muscle Stem Cells were evaluated by counting the number of Pax7+ cells (A) and myogenin+ cells (B), respectively. Data are expressed as number of cells per area of injured muscle. The size of each newly formed myofiber (C) has been measured based on the expression of the eMHC and laminin that allow to recognize and delineate these nascent myofibers. Results are shown as mean myofiber cross-sectional area (μm^2).
In order to reproduce the physiological process of muscle regeneration that occurs in adult skeletal muscles in response to injury or disease, we performed an intramuscular injection of cardiotoxin into mouse hindlimb muscles. One week prior to the induction of the muscle injury, mice were given by oral gavage gyrophoric acid (at 100 mg/kg body weight) vs. water control. […] Several myogenic markers were then measured. […]
as §1, with “(FIG. 6A)” for “(A)”, “(FIG. 6B),” for “(B),”, “(FIG. 6C)” for “(C)”, “Results are shown as mean myofiber cross-sectional area (μm^2).” left out

`Cc1cc(OC(=O)c2c(C)cc(OC(=O)c3c(C)cc(O)cc3O)cc2O)cc(O)c1C(=O)O` [gyrophoric acid, 4-[4-(2,4-dihydroxy-6-methylbenzoyl)oxy-2-hydroxy-6-methylbenzoyl]oxy-2-hydroxy-6-methylbenzoic acid] was tested, and the “in vivo muscle regeneration process (Pax7+ cells, myogenin+ cells, size of newly formed myofibers)” value was “Able to Promote the In Vivo Muscle Regeneration Process”.
